Results as given in US5410024A, “Human cancer inhibitory pentapeptide amides” (Arizona Board of Regents acting on behalf of Arizona State …, priority 1993, dated 1995).

How the values were obtained:
SF-295 = assay: NCI human tumor cell line screen, CNS SF-295; assay type: cell-based; details: minipanel comparison, column B (key not visible; values match SF-295)
From the text: (§1) Current research in the control of cancer in the United States is coordinated by the National Cancer Institute (NCI). To determine whether a substance has anti-cancer properties, the NCI has established a systematic protocol. […] The protocol, and the established statistical means for analyzing the results obtained by the standardized testing are fully described in the literature. […] Both of these references are incorporated herein by this reference thereto.

KM20L2 = assay: NCI human tumor cell line screen, Colon KM20L2; assay type: cell-based; details: minipanel comparison
From the text: as §1

SK-MEL-5 = assay: NCI human tumor cell line screen, Melanoma SK-MEL-5; assay type: cell-based; details: minipanel comparison, column F (key not visible; values match SK-MEL-5)
From the text: as §1

M5076 Ovary Sarcoma = assay: Murine in vivo system, M5076 Ovary Sarcoma
NCI-H460 = assay: NCI human tumor cell line screen, Lung-NSC NCI-H460; assay type: cell-based; details: minipanel comparison, column D (key not visible; values match NCI-H460)
From the text: as §1

[1] = test system: P388 Lymphocytic Leukemia; assay: Murine in vivo system, P388 Lymphocytic Leukemia
[2] = test system: MX-1 Human Mammary Xenograft; assay: MX-1 Human Mammary Xenograft (Tumor Regression); assay type: in vivo, Murine
[3] = test system: LOX Human Melanoma Xenograph; assay: LOX Human Melanoma Xenograph (Nude Mouse); assay type: in vivo
A498 = assay: NCI human tumor cell line screen, Renal A498; assay type: cell-based; details: minipanel comparison, column C (key not visible; values match A498)
From the text: as §1

OVCAR-3 = assay: NCI human tumor cell line screen, Ovarian OVCAR-3; assay type: cell-based; details: minipanel comparison, column A (key not visible; values match OVCAR-3)
From the text: as §1

[4] = test system: OVCAR-3 Human Ovary Xenograph; assay: OVCAR-3 Human Ovary Xenograph, Nude Mouse; assay type: in vivo; details: OVCAR-3 xenograph, 40 μg/kg
B16 Melanoma = assay: Murine in vivo system, B16 Melanoma
Human Mammary Xenograph = assay: Human Mammary Xenograph, Nude Mouse; assay type: in vivo; details: 26 μg/kg
[5] = test system: L1210 Lymphocytic Leukemia; assay: Murine in vivo system, L1210 Lymphocytic Leukemia
[6] = LOX in separate experiments, 9.0 μg/kg
[7] = LOX in separate experiments, 26 μg/kg
[8] = LOX in separate experiments, 43 μg/kg

**Q.** Which results are given for Dolastatin 10?
**A.** GI50, minipanel cell line B (SF-295): 7.6e-05 ng/mL; GI50, minipanel cell line E (KM20L2): 0.0047 ng/mL; GI50, minipanel cell line F (SK-MEL-5): 0.0074 ng/mL; T/C (M5076 Ovary Sarcoma; M5076, 3.25 μg/kg): 151; T/C (M5076 Ovary Sarcoma; M5076, 6.5 μg/kg): 142; T/C (M5076 Ovary Sarcoma; M5076, 13 μg/kg): 166; T/C (M5076 Ovary Sarcoma; M5076, 26 μg/kg): toxic; GI50, minipanel cell line D (NCI-H460): 0.0034 ng/mL; cures ([1]; P388, 3.25 μg/kg): 17%; cures ([1]; P388, 6.5 μg/kg): 17%; T/C ([1]; P388, 13.0 μg/kg): toxic; T/C (Tumor Regression) ([2]; MX-1, 6.25 μg/kg): 69; T/C (Tumor Regression) ([2]; MX-1, 13 μg/kg): 61; T/C (Tumor Regression) ([2]; MX-1, 26 μg/kg): 50; T/C (Tumor Regression) ([2]; MX-1, 52 μg/kg): 14; T/C [3, 6]: 138; cures [3, 6]: 17%; T/C ([3]; LOX in separate experiments, 15 μg/kg): 192; T/C [3, 7]: 181; cures [3, 7]: 33%; T/C [3, 8]: 340; cures [3, 8]: 50%; T/C ([3]; LOX, 3.25 μg/kg): 170; cures ([3]; LOX, 3.25 μg/kg): 17%; cures ([3]; LOX, 6.5 μg/kg): 33%; cures ([3]; LOX, 13 μg/kg): 50%; cures ([3]; LOX, 26 μg/kg): 67%; T/C ([3]; LOX, 52 μg/kg): toxic; GI50, minipanel cell line C (A498): 0.026 ng/mL; GI50, minipanel cell line A (OVCAR-3): 0.00095 ng/mL; T/C [4]: 300; T/C (B16 Melanoma; B16, 1.44 μg/kg): 142; T/C (B16 Melanoma; B16, 3.4 μg/kg): 171; T/C (B16 Melanoma; B16, 4.0 μg/kg): 205; T/C (B16 Melanoma; B16, 6.67 μg/kg): 182; T/C (B16 Melanoma; B16, 11.11 μg/kg): 238; cures (B16 Melanoma; B16, 11.11 μg/kg): 40%; T/C (Human Mammary Xenograph): Toxic; T/C ([5]; L1210, 1.63 μg/kg): 120; T/C ([5]; L1210, 3.25 μg/kg): 139; T/C ([5]; L1210, 6.5 μg/kg): 135; T/C ([5]; L1210, 13 μg/kg): 152
